Results reported in article PMC6273079, “Purification of Flavonoids from Chinese Bayberry (Morella rubra Sieb. et Zucc.) Fruit Extracts and α-Glucosidase Inhibitory Activities of Different Fractionations” (Molecules, 2016).

What was measured:
[1] = ABTS radical scavenging activity; details: samples from BQ pulp; 6 min, 734 nm; mean ± SD, n = 3
Method: ABTS assay was carried out using a spectrophotometer as reported. The ABTS radical cation was generated by reacting 7 mmol/L ABTS with 2.45 mmol/L potassium persulfate, and the mixture was allowed to stand in the dark at room temperature for 16 h before use. Before analysis, the ABTS solution was diluted with ethanol to an absorbance of 0.70 ± 0.05 at a wavelength of 734 nm. The absorbance at 734 nm was recorded for 6 min after mixing of 0.1 mL of the tested samples dissolved in ethanol with 3.9 mL of ABTS solution. The radical scavenging activity was calculated as the Equation (1) above.

[2] = DPPH radical scavenging activity; details: samples from BQ pulp; 1 h reaction, 515 nm; mean ± SD, n = 3
Method: DPPH radical scavenging activity was measured according to Brand-Williams, Cuvelier, and Berset with modifications. The reaction for scavenging DPPH radical was carried out by adding 2 μL sample to 198 μL 25 μg/mL DPPH solution at room temperature. Absorbance at 515 nm before (A0) and after (A1) the reaction (1 h) was recorded using a micro-plate reader (BioTech, Synergy H1, Winooski, VT, USA). The radical scavenging activity was calculated as: Scavenging rate (%) = (A0 − A1)/A0 × 100 (1)

| IC50 of ABTS radical scavenging activity [1] [µg/mL] | IC50 of DPPH scavenging activity [2] [µg/mL] | Compound |
| --- | --- | --- |
| 3.24 ± 0.02 | 2.81 | C[C@@H]1O[C@@H](Oc2c(-c3cc(O)c(O)c(O)c3)oc3cc(O)cc(O)c3c2=O)[C@H](O)[C@H](O)[C@H]1O [M3R, myricetin-3-O-rhamnoside] |
| 2.09 ± 0.01 | 2.43 | O=c1c(O[C@@H]2O[C@H](CO)[C@H](O)[C@H](O)[C@H]2O)c(-c2ccc(O)c(O)c2)oc2cc(O)cc(O)c12 [Q3Gal, quercetin-3-O-galactoside] |
| 4.19 ± 0.16 | 3.22 | OC[C@H]1O[C@@H](Oc2cc3c(O)cc(O)cc3[o+]c2-c2ccc(O)c(O)c2)[C@H](O)[C@@H](O)[C@@H]1O [C3G, cyanidin-3-O-glucoside] |

| Compound | IC50 of ABTS radical scavenging activity [1] [µg/mL] | IC50 of DPPH scavenging activity [2] [µg/mL] |
| --- | --- | --- |
| quercetin-3-O-rhamnoside [Q3R] | 2.28 ± 0.05 | 2.55 |
